Here are results for 22 molecules from US7662750B2, “Protein-protein interaction antagonist screening libraries based upon 1,4-disubstituted naphthalenes and related scaffolds” (The Research Foundation of State University of New York, priority 2003, dated 2010).

In one assay the target is T1, HOXA1-PBX1/DNA (Mus musculus, UniProt P41778).
T1 construct: the mouse/human 233-319 PBX1 protein
T1 sequence (P41778 233-319): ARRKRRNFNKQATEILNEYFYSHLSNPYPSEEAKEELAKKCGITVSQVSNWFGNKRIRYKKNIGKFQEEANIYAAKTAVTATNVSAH
In words: EMSA, formation of HOXA1-PBX1/DNA ternary complex. It is filed as binding. Conditions: for Selectivity for HOXA1-PBX1/DNA ternary complex relative to the other complexes tested: versus PBX1/DNA, BRN1/DNA, BRN2/DNA. (In general: Mobility shift assays separate free from complexed probe on a gel.)

Another assay addresses T2, BRN1/DNA (Mus musculus, UniProt P31361).
T2 construct: using nuclear extracts from RA treated P19 cells; endogenous in cells; host or cells: RA-treated P19 cells, nuclear extract
T2 sequence (P31361 1-497): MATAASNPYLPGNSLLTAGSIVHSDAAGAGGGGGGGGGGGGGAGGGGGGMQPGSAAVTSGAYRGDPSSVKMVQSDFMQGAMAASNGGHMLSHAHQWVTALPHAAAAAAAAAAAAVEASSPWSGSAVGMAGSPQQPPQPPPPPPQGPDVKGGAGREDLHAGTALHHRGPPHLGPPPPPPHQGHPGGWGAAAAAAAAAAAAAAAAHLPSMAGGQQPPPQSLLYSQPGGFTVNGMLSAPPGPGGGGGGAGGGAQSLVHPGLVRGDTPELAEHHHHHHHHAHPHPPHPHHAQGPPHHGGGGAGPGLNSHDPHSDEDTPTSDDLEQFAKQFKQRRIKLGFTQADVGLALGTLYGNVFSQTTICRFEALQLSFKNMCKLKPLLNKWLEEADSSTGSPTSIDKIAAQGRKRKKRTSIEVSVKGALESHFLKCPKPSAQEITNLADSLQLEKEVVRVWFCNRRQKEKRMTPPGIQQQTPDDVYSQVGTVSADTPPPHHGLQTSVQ
The assay is described as follows: EMSA, BRN1/DNA complex (nuclear extracts from RA treated P19 cells). It is filed as binding. Conditions: EMSA with BRN1 recognition element probe. As for the experimental part: (§1) The selectivity of individual members of the library for the HOXA1-PBX1/DNA target, as well as the ability of some analogs to cross over to other transcription factor targets was evaluated by testing them in parallel against the BRN1 & BRN2 transcription factors. BRN1 and BRN2 are members of mammalian class III POU transcription factor family and are expressed in the developing embryonic brain (McEvilly et al., Science 295:1528 (2002), which is hereby incorporated by reference in its entirety). POU domain class transciption factors contain, in addition to the POU domain, a homeodomain helix-turn-helix class DNA binding motif similar to that found in the HOX and PBX class transcription factors (Josephson et al., Development 125:3087 (1998); Hara et al., PNAS 89(8):3280 (1992), which are hereby incorporated by reference in their entirety). EMSAs were performed with BRN1 & BRN2 exactly as was done with HOXA1-PBX1 except that a sequence recognition element known to bind BRN1/BRN2 was used as the probe (Pruitt et al., Gene Expression Patterns 4(6):671 (2004), which is hereby incorporated by reference in its entirety).

The next assay concerns the target T3, BRN2/DNA (Mus musculus, UniProt P31360).
T3 construct: using nuclear extracts from RA treated P19 cells; endogenous in cells; host or cells: RA-treated P19 cells, nuclear extract
The assay is described as follows: EMSA, BRN2/DNA complex (nuclear extracts from RA treated P19 cells). Format: binding. Conditions: EMSA with BRN2 recognition element probe. Here is the method:
as §1

Another assay concerns the target T4, PBX1/DNA (Mus musculus, UniProt P41778).
T4 construct: the mouse/human 233-319 PBX1 protein
T4 sequence (P41778 233-319): T1 sequence (P41778 233-319)
The assay is described as follows: EMSA, formation of PBX1/DNA binary complex (FIG. 1). Format: binding. Conditions: for Inhibition of formation of the PBX1/DNA binary complex: FIG. 1. The text has this: Antagonist 31 differs from compound 15 by replacing the small cyclopropyl R1 with the larger 4-hydroxyphenyl group. […] On the other hand, both antagonists can bind in the hydrophobic pocket thereby preventing HOXA1 from binding to the binary complex. Upon closer evaluation of the compound 31 dose-response of the binary PBX/DNA band intensity relative to the ternary HOXA1-PBX/DNA band intensity, it was noted that the binary PBX/DNA band initially “increased” in intensity at low compound 31 concentrations. […] As the concentration of compound 31 is further increased, the binary PBX/DNA complex formation is inhibited enough to overcome the release of this binary complex from the ternary complex and, therefore, the binary band intensity begins to decrease.

The target in assay [1] is T5, HOX-PBX1 cooperative DNA binding (Homo sapiens, UniProt P40424).
T5 sequence (P40424 1-430): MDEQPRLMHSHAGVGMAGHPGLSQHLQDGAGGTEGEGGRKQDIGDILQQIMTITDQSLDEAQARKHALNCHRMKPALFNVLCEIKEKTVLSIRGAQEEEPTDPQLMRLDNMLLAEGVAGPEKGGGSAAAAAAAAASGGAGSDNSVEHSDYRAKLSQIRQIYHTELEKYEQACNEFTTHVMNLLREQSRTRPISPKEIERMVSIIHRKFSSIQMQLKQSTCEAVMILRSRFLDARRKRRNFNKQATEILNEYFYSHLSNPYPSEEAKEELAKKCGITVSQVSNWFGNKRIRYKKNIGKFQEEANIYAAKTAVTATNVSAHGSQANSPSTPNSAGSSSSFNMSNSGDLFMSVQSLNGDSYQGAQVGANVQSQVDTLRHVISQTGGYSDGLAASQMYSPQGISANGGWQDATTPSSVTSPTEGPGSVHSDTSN
Conditions: literature value (Knoepfler et al. 1995); read-out: IC50 for blocking cooperative HOX-PBX DNA binding; cited from earlier work.

Where [2] appears, read: Table 1, EMSA, averaged densitometric analysis of multiple gels.
The mark [3] stands for this setting: Table 2, 5,6,7,8-tetrahydro-naphthalenes.
Setting [4] is: Table 3, tricyclo[6.2.2.0^2,7]dodeca-2(7),3,5-trienes.

As usually defined, the IC50 is the concentration needed to halve the response being measured.

T3 sequence (P31360 whole entry): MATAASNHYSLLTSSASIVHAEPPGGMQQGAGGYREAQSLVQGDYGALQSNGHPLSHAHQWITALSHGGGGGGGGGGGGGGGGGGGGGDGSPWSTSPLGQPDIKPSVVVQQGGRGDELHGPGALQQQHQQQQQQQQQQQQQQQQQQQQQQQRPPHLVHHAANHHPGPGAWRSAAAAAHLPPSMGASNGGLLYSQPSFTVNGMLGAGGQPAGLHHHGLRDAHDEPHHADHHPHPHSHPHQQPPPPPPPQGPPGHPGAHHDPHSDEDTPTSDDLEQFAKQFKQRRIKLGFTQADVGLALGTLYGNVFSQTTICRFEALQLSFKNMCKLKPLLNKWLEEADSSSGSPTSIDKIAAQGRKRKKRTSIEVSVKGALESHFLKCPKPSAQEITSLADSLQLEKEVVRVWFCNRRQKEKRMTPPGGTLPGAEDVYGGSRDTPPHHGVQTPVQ

`NC(=O)COc1ccc(C(=O)Nc2cccc(F)c2)c2ccccc12` [Compound 7] had an IC50 on HOXA1-PBX1/DNA (setting [2]) of 272 µM.

Consider `CCCNC(=O)COc1ccc(C(=O)Nc2cccc(F)c2)c2ccccc12` [Compound 11], for which the IC50 against HOXA1-PBX1/DNA (setting [2]) worked out at 278 µM.

`CC(C)NC(=O)COc1ccc(C(=O)Nc2cccc(F)c2)c2ccccc12` [Compound 12]: the IC50 against HOXA1-PBX1/DNA (setting [2]) came to 272 µM.

In the case of `CC(C)CNC(=O)COc1ccc(C(=O)Nc2cccc(F)c2)c2ccccc12` [Compound 13], the 50% inhibitory concentration (IC50) on HOXA1-PBX1/DNA (setting [2]) worked out at 298 µM.

Turning to `O=C(COc1ccc(C(=O)Nc2cccc(F)c2)c2ccccc12)NC1CC1` [Compound 15], the IC50 at HOXA1-PBX1/DNA (setting [2]) was 173 µM; against BRN1/DNA, 810 µM; at BRN2/DNA it was above 10000 µM. Besides, the “Selectivity for HOXA1-PBX1/DNA ternary complex relative to the other complexes tested” value on HOXA1-PBX1/DNA is “selective”. For the same molecule, the “Inhibition of formation of the PBX1/DNA binary complex” value on PBX1/DNA is reported as “ternary complex only”.

With `C#CCNC(=O)COc1ccc(C(=O)Nc2cccc(F)c2)c2ccccc12` [Compound 16], on HOXA1-PBX1/DNA (setting [2]), the IC50 came to 331 µM.

As to `O=C(COc1ccc(C(=O)Nc2cccc(F)c2)c2ccccc12)NCC(F)(F)F` [Compound 17], the IC50 at HOXA1-PBX1/DNA (setting [2]) is 111 µM; against BRN1/DNA, 162 µM; against BRN2/DNA it was 204 µM.

Turning to `O=C(COc1ccc(C(=O)Nc2cccc(F)c2)c2ccccc12)Nc1ccccc1` [Compound 23], the IC50 against HOXA1-PBX1/DNA (setting [2]) came to 254 µM.

On HOXA1-PBX1/DNA (setting [2]), `O=C(COc1ccc(C(=O)Nc2cccc(F)c2)c2ccccc12)Nc1ccc(F)cc1` [Compound 26] displayed a 50% inhibitory concentration (IC50) of 293 µM.

With `COc1ccccc1NC(=O)COc1ccc(C(=O)Nc2cccc(F)c2)c2ccccc12` [Compound 27], at HOXA1-PBX1/DNA (setting [2]), the IC50 was found to be 718 µM.

On HOXA1-PBX1/DNA (setting [2]), `COc1cccc(NC(=O)COc2ccc(C(=O)Nc3cccc(F)c3)c3ccccc23)c1` [Compound 28] had an IC50 of 580 µM.

The molecule `COc1ccc(NC(=O)COc2ccc(C(=O)Nc3cccc(F)c3)c3ccccc23)cc1` [Compound 29] showed an IC50 on HOXA1-PBX1/DNA (setting [2]) of 161 µM.

For the molecule `O=C(COc1ccc(C(=O)Nc2cccc(F)c2)c2ccccc12)Nc1cccc(O)c1` [Compound 30], the IC50 at HOXA1-PBX1/DNA (setting [2]) is 86 µM; against BRN1/DNA, 142 µM; on BRN2/DNA, 148 µM.

As to `O=C(COc1ccc(C(=O)Nc2cccc(F)c2)c2ccccc12)Nc1ccc(O)cc1` [Compound 31], the results for the IC50 at HOXA1-PBX1/DNA (setting [2]), on BRN1/DNA and against BRN2/DNA were 65 µM, 124 µM and 138 µM, respectively. The “Selectivity for HOXA1-PBX1/DNA ternary complex relative to the other complexes tested” value on HOXA1-PBX1/DNA is recorded as “some selectivity”. Besides, on PBX1/DNA, the “Inhibition of formation of the PBX1/DNA binary complex” value is recorded as “inhibited”. Also, on PBX1/DNA (dose-response, low concentrations), the “Binary PBX/DNA band intensity at low compound concentrations” value was “increased”.

In the case of `COc1ccc(NC(=O)COc2ccc(C(=O)Nc3cccc(F)c3)c3ccccc23)cc1OC` [Compound 34], on HOXA1-PBX1/DNA (setting [2]), the half-maximal inhibitory concentration (IC50) was found to be 464 µM.

For `O=C(COc1ccc(C(=O)Nc2cccc(F)c2)c2c1CCCC2)NC1CC1` [Compound 48], on HOXA1-PBX1/DNA (setting [3]), the IC50 came out at 66 µM.

Molecule `O=C(COc1ccc(C(=O)Nc2cccc(F)c2)c2c1CCCC2)NCC(F)(F)F` [Compound 49] showed an IC50 against HOXA1-PBX1/DNA (setting [3]) of 84 µM.

On to `O=C(COc1ccc(C(=O)Nc2cccc(F)c2)c2c1CCCC2)Nc1ccc(O)cc1` [Compound 50], for which the IC50 against HOXA1-PBX1/DNA (setting [3]) came to 96 µM.

At HOXA1-PBX1/DNA (setting [4]), `O=C(COc1ccc(C(=O)Nc2cccc(F)c2)c2c1C1CCC2CC1)NC1CC1` [Compound 61] returned a half-maximal inhibitory concentration (IC50) of 562 µM.

On HOXA1-PBX1/DNA (setting [4]), `O=C(COc1ccc(C(=O)Nc2cccc(F)c2)c2c1C1CCC2CC1)Nc1ccc(O)cc1` [Compound 62] yielded an IC50 of 196 µM.

For `O=C(COc1ccc(C(=O)Nc2cccc(F)c2)c2c1C1CCC2CC1)NCC(F)(F)F` [Compound 63, 6-[(2,2,2-Trifluoro-ethylcarbamoyl)-methoxy]-tricyclo[6.2.2.0^2,7]dodeca-2,4,6-triene-3-carboxylic Acid (3-fluoro-phenyl)-amide], on HOXA1-PBX1/DNA (setting [4]), half-maximal inhibition (IC50) was put at 258 µM.

With QPQIYPWMRKLH, the IC50 in assay [1] is 100 µM.
